Reference: patent US20160158375A1, “DIPEPTIDE LINKED MEDICINAL AGENTS” (Indiana University Research and Technology Corporation, priority 2010, published 2016)
Where two headings read alike, the source gives them in different places. Square brackets hold non-standard residues; d marks the D form. Peptide text beside a SMILES is read from it. Sar = CNCC(=O)O

Columns and labels:
[1] = plasma; for Relative peak area (%), HPLC peak a: peak a molecular weight 702; for Relative peak area (%), HPLC peak b: peak b molecular weight 902
[2] = Rate of model dipeptide cleavage in PBS (HPLC / LC-MS); conditions: for Relative peak area (%), HPLC peak a / Relative peak area (%), HPLC peak b: PBS, 37° C.; for Relative peak area (%), HPLC peak a: peak a molecular weight 702; for Relative peak area (%), HPLC peak b: peak b molecular weight 902
Procedure: The solution was incubated at 37° C. […] The dipeptide cleavage was quenched by lowering the pH with an equal volume of 0.1% TFA. The rate of cleavage was qualitatively monitored by LC-MS and quantitatively studied by HPLC. The retention time and relative peak area for the prodrug and the parent model peptide were quantified using Peak Simple Chromatography software.
The flow rate was 1 ml/min.
The concentrations of the prodrugs and the model parent peptide were determined by their respective peak areas, ‘a’ and ‘b’ for each of the different collection times (Table 1). […] The slope of this plot provides the rate constant 1′.

C[C@H](O)[C@@H](NC(=O)CNC(=O)[C@@H](CCCNC(=N)N)NC(=O)[C@H](NC(=O)[C@@H](Cc1c[nH]cn1)NC(=O)CN(C)C(=O)[C@@H](N)CCCCN)[C@H](C)O)C(=O)N[C@H](Cc1ccccc1)C(N)=O [peptide B, Lys-Sar-dHdTdRGdTdF-NH2] (H-K[Sar][dH][dT][dR]G[dT][dF]-NH2)
Relative peak area (%), HPLC peak a ([1]; 5 h): 17.0%
Relative peak area (%), HPLC peak b ([1]; 5 h): 83.0%
Relative peak area (%), HPLC peak a ([1]; 11 h): 29.2%
Relative peak area (%), HPLC peak b ([1]; 11 h): 70.8%
Relative peak area (%), HPLC peak a ([1]; 24 h): 60.2%
Relative peak area (%), HPLC peak b ([1]; 24 h): 39.8%
Relative peak area (%), HPLC peak a ([1]; 32 h): 54.0%
Relative peak area (%), HPLC peak b ([1]; 32 h): 46.0%
Relative peak area (%), HPLC peak a ([1]; 48 h): 27.6%
Relative peak area (%), HPLC peak b ([1]; 48 h): 72.4%

C[C@@H](O)[C@H](NC(=O)CNC(=O)[C@H](CCCNC(=N)N)NC(=O)[C@H](CO)NC(=O)[C@H](Cc1c[nH]cn1)NC(=O)CN(C)C(=O)C(C)(C)N)C(=O)N[C@@H](Cc1ccccc1)C(N)=O [Compound 24]
half-life at 1 mg/ml ([2]; buffer): 9 min

C[C@@H](O)[C@H](NC(=O)CNC(=O)[C@H](CCCNC(=N)N)NC(=O)[C@H](CO)NC(=O)[C@H](Cc1c[nH]cn1)NC(=O)CN(C)C(=O)[C@@H](N)CCCCN)C(=O)N[C@@H](Cc1ccccc1)C(N)=O [peptide A, Lys-Sar-HSRGTF-NH2] (H-K[Sar]HSRGTF-NH2; N-terminus assumed)
Relative peak area (%), HPLC peak a ([2]; 5 h): 26.5%
Relative peak area (%), HPLC peak b ([2]; 5 h): 73.5%
Relative peak area (%), HPLC peak a ([2]; 8 h): 28.9%
Relative peak area (%), HPLC peak b ([2]; 8 h): 71.1%
Relative peak area (%), HPLC peak a ([2]; 24 h): 28.8%
Relative peak area (%), HPLC peak b ([2]; 24 h): 71.2%
Relative peak area (%), HPLC peak a ([2]; 31 h): 77.7%
Relative peak area (%), HPLC peak b ([2]; 31 h): 22.3%
Relative peak area (%), HPLC peak a ([2]; 47 h): 90.0%
Relative peak area (%), HPLC peak b ([2]; 47 h): 10.0%
